The record followed here is patent publication US12029800B2, “Composite particles including anionic polymer and cationic polymer or peptide, and method for producing composite particles” (POLA CHEMICAL INDUSTRIES, INC., priority 2016, dated 2024).

A short description of the data set: Test Example 3: particle diameter of composite particles after adding PBS (imitating the inside of the living body). It counts as physicochemical. As to conditions: PBS 100% (the same environment as the inside of the skin), FIG. 1. The procedure: An aqueous solution including a composite particle of sodium hyaluronate and a cationic polymer that was each of a primary amine and a quaternary ammonium was prepared in a similar manner as in Test Example 1.
By adding a PBS buffer solution constituted of the ions that are universally found in the living body into an aqueous solution of the prepared composite particles, it was investigated how the composite particles under the environment imitating the inside environment of the living body behaved.
Specifically, PBS was added into an aqueous solution of the prepared composite particles, and the particle diameter of a composite particle in the aqueous solution was measured in a similar manner as in Test Example 2.

Consider Polylysine, for which the “Particle diameter of the composite particle with sodium hyaluronate at addition amount of PBS 100%” value is listed as “particle diameter was not able to be almost measured”.
Consider Protamine, for which the “Particle diameter of the composite particle with sodium hyaluronate at addition amount of PBS 100%” value is listed as “particle diameter was not able to be almost measured”.
